Here are results for one substance from patent EP0406628A1, “Monoclonal antibody against endothelin, hybridoma capable of producing the same and radioimmunoassay for endothelin by using the same” (SHIONOGI & CO., LTD., priority 1989, dated 1991).

In the assay the test system is isolated rat aortic strips. Put plainly: Neutralization experiment: contractile response of isolated rat aortic strips to ET-1. Particulars: synthetic ET-1 alone. Here is the method: Contractile responses of rat aortic strips were performed as previously reported (Toda, S., Nakajima, S., Miyazaki, M., Ueda, M.: Vasodilation induced by pinacidil in dogs _ comparison with hydralizine and nifedipine. J. Cardiovasc. Pharmacol. 1985;7:1118-1126). Aortic strips were incubated in an organ bath perfused at 37°C with balanced salt solution containing 139.7 mEq Na⁺, 5.4 mEq K⁺, 2.2 mEq Ca²⁺, 1.0 mEq Mg²⁺, 131.5 mEq Cl⁻ and 20 mEq HCO₃⁻. Purified monoclonal antibody (0.05 µg/ml - 5 µg/ml) was added 3 min before the ET-1 administration.

Bridge positions count the residues as written; N and C are the ends. Ends that are not written are not given here.

Take “ET-1: endothelin-1, purchased from Peptide Institute Inc.; original form isolated from culture medium of porcine aortic endothelial cells (CSCSSLMDKECVYFCHLDIIW; disulfide 1-15, 3-11; ends not checked; UniProt P05305 53-73, looked up)”: the vasoconstriction result was “induced a vasoconstriction in isolated rat aortic strips in a dose-dependent manner”.
